Measurements taken from WO2007139036A1, “Compound for controlling endoplasmic reticulum stress, and pharmaceutical composition comprising the compound as active ingredient” (Meiji Dairies Corp, priority 2006, dated 2007).

Columns and labels:
MIN6 cells [1] = experiment: Secondary screening: oxidative stress (H2O2)-derived cell death suppression, MIN6 cells; type: cell-based, mouse; parameters: key to oxidative stress-derived cell death inhibitory effect (class symbol): 一: 細胞死抑制効果無し; +: その中間程度の抑制効果を有する; ++: ダントロ レンの細胞死抑制効果と同程度; settings: H2O2 66 μM, 24 h; for oxidative stress-derived cell death inhibitory effect, compared with N-acetylcysteine (NAC): NAC 1000 μM
MIN6 cells [2] = experiment: Intracellular protein synthesis by metabolic labeling (35S-Met), MIN6 cells; type: cell-based, mouse; settings: incubated for more than 24 hours
heme-oxygenase 1 (HO-1) = experiment: HO-1 expression by Northern blot, MIN6 cells; type: cell-based, mouse
CHOP = CHOP expression by Northern blot, MIN6 cells; type: cell-based, mouse
XBP1 = XBP1 activation by RT-PCR, MIN6 cells; type: cell-based, mouse
GRP78 = GRP78 expression by Northern blot, MIN6 cells; type: cell-based, mouse
[3] = test system: kidney (proximal) tubule cells; experiment: Third screening: mouse endoplasmic reticulum stress model (tunicamycin), kidney tubules, HE and TUNEL; type: in vivo; settings: 10 mg/kg/day intraperitoneal daily for 4 days before tunicamycin 1 mg/kg
[4] = test system: rat Parkinson disease model; settings: cited from earlier work
[5] = other models; cited from earlier work
[6] = Patent Document 1 (JP 2005-247728); cited from earlier work
[7] = pre-administration from 24 h before H2O2 and simultaneous administration

Structure (SMILES): O=c1cc(-c2ccccc2)oc2ccccc12 [flavone]
- oxidative stress-derived cell death inhibitory effect, compared with N-acetylcysteine (NAC) (MIN6 cells [1]): 効果はやや小さかった
- oxidative stress-derived cell death inhibitory effect, compared with α-tocopherol and β-carotene (MIN6 cells [1]; [7]): 同程度の効果が認められた

Structure (SMILES): COc1ccc(-c2cc(=O)c3c(OC)c(OC)c(OC)cc3o2)cc1OC [IN88, sinensetin]
- oxidative stress-derived cell death inhibitory effect, compared with N-acetylcysteine (NAC) (MIN6 cells [1]): 効果はやや小さかった
- oxidative stress-derived cell death inhibitory effect, compared with α-tocopherol and β-carotene (MIN6 cells [1]; [7]): 同程度の効果が認められた

Structure (SMILES): COc1ccc(-c2cc(=O)c3c(OC)c(OC)c(OC)c(OC)c3o2)cc1 [IN19, tangeretin]
- oxidative stress-derived cell death inhibitory effect, compared with N-acetylcysteine (NAC) (MIN6 cells [1]): 効果はやや小さかった
- oxidative stress-derived cell death inhibitory effect, compared with α-tocopherol and β-carotene (MIN6 cells [1]; [7]): 同程度の効果が認められた
- intracellular protein synthesis (decreased to) (MIN6 cells [2]): about 60%
- expression of heme-oxygenase 1 (HO-1) (heme-oxygenase 1 (HO-1)): also increased
- expression of CHOP (CHOP): also increased
- activation of XBP1 (XBP1): involves administration of IN19
- expression of GRP78 (GRP78): at least not increased
- tissue damage in renal tubules ([3]; kidney on day 4 after tunicamycin): ほぼ完全に抑制された
- cell death in renal tubules ([3]; kidney on day 4 after tunicamycin (TUNEL)): ほぼ完全に抑制された
- neuroprotective activity [4]: neuroprotective

Structure (SMILES): COc1ccc(-c2cc(=O)c3c(OC)c(OC)c(OC)c(OC)c3o2)cc1OC [IN69, nobiletin]
- oxidative stress-derived cell death inhibitory effect (class symbol) (MIN6 cells [1]; [7]): 士
- neuroprotective activity [5]: neuroprotective

Structure (SMILES): CCCCCC=CCC=CCCCCCCCC(=O)OCC(COP(=O)(O)OCCN)OC(=O)CCCCCCCC=CCC=CCCCCC (stereo not drawn) [ジリノレオイルホスファチジルエタノールァミン, dilinoleoylphosphatidylethanolamine]
- cell death induction suppressing activity [6]: 細胞死誘導抑制活性
- endoplasmic reticulum stress suppressing activity [6]: 小胞体ストレス抑制活性
